Where a name gives a salt, the structure may show the parent alone.

Assay in one series: not given
Particulars: in water; synthesized salts (and cannabinol parent).
For orientation: Solubility means how much of the substance goes into solution per volume. On to `CCCCCc1cc(O)c2c(c1)OC(C)(C)C1CCC(C)=CC21` (centres unmarked) [drawing 25/drawing 26 1:1, Choline Salt with THC (1:1)], for which the Solubility came out at 3000 µg/mL.

Regarding `CCCCCc1cc(O)c2c(c1)OC(C)(C)C1CCC(C)=CC21` [drawing 25/drawing 27 1:1, L-Lysine Salt with THC (1:1)], the Solubility stood at 2000 µg/mL.

`CCCCCc1cc(O)c2c(c1)OC(C)(C)C1CCC(C)=CC21` (centres unmarked) [drawing 25/drawing 29 1:1, Agmatine Salt with THC (1:1)]: the Solubility stood at 200 µg/mL.

With `CCCc1cc(O)c2c(c1)OC(C)(C)C1CCC(C)=CC21` (centres unmarked) [drawing 37/drawing 38 1:1, Tetrakis(2-hydroxyethyl)ammonium Salt with Δ^9-Tetrahydrocannabivarin (1:1)], the Solubility stood at 7000 µg/mL.

Turning to `CCCc1cc(O)c2c(c1)OC(C)(C)C1CCC(C)=CC21` (centres unmarked) [drawing 37/n^−Bu4N^+ 1:1, Tetrabutylammonium Salt with Δ^9-Tetrahydrocannabivarin (1:1)], the Solubility came out at 200 µg/mL.

For the compound `CCCCCc1cc(O)c2c(c1)OC(C)(C)c1ccc(C)cc1-2` [drawing 39, Cannabinol, reference compound], the Solubility entry was “insoluble”.

Take `CCCCCc1cc(O)c2c(c1)OC(C)(C)c1ccc(C)cc1-2` [drawing 39/Et4N^+ 1:1, Tetraethylammonium Salt with Cannabinol (1:1)]: the Solubility was determined as 200 µg/mL.

In the case of `CCCCCc1cc(O)c2c(c1)OC(C)(C)c1ccc(C)cc1-2` [drawing 39/drawing 41 1:1, Acetylcholine Salt with Cannabinol (1:1)], the Solubility came to 1000 µg/mL.

Take “Procaine Salt with CBD (1:1) [drawing 17/drawing 22 1:1]”: the Solubility stood at 5000 µg/mL.

Consider “Procaine Salt with CBD (2:1) [drawing 17/drawing 22 1:2]”, for which the Solubility worked out at 6000 µg/mL.

Assay in the next series: not given
As to conditions: in water; parent cannabinoid without base, literature value (footnotes a-f); cited from earlier work.
In the case of `C=C(C)[C@@H]1CCC(C)=C[C@H]1c1c(O)cc(CCCCC)cc1O` [Cannabidiol], the Solubility was 0.0007^[a] mg/mL.

Turning to `C=C(C)[C@@H]1CCC(C)=C[C@H]1c1c(O)cc(CCCCC)c(C(=O)O)c1O` [Cannabidiolic acid], the Solubility was 2.2^[c] mg/mL.

On to `CCCCCc1cc(O)c2c(c1)OC(C)(C)C1CCC(C)=CC21` (centres unmarked) [drawing 25, Δ^9-tetrahydrocannabinol], for which the Solubility was 0.0028^[b] mg/mL.

Consider `CCCCCc1cc2c(c(O)c1C(=O)O)C1C=C(C)CCC1C(C)(C)O2` (centres unmarked) [drawing 32, Tetrahydrocannabinolic acid], for which the Solubility is 0.048^[d] mg/mL.

Turning to `CCCc1cc(O)c2c(c1)OC(C)(C)C1CCC(C)=CC21` (centres unmarked) [drawing 37, Δ^9-Tetrahydrocannabivarin], the Solubility is 0.009^[f] mg/mL.

A short description of a further series: physchem. Particulars: water.
`CCCCCc1cc(O)c(C/C=C(\C)CCC=C(C)C)c(O)c1` [drawing 35/drawing 36 1:1, 1-Benzylpyridinium cannabigerol salt (1:1)] came in with a Solubility of 1000 µg/mL.

Still in this series, the particulars now being: water, Solubility.
For the compound `CCCCCc1cc(O)c2c(c1)OC(C)(C)C1CCC(C)=CC21` (centres unmarked) [drawing 25/drawing 28 1:1, Meglumine Salt with THC (1:1)], the Solubility was found to be 9000 µg/mL.

For `CCCCCc1cc2c(c(O)c1C(=O)O)C1C=C(C)CCC1C(C)(C)O2` (centres unmarked) [drawing 32/drawing 34 1:2, Meglumine Salt with Tetrahydrocannabinolic Acid (2:1)], the Solubility amounted to 20000 µg/mL.

Staying with this series, now noted: water, Solubility, in water; synthesized salts (and cannabinol parent).
In the case of `C=C(C)C1CCC(C)=CC1c1c(O)cc(CCCCC)c(C(=O)O)c1O` (centres unmarked) [drawing 30/drawing 31 1:3, Choline Salt with Cannabidiolic Acid (3:1)], the Solubility worked out at 24000 µg/mL.

In the case of `CCCCCc1cc2c(c(O)c1C(=O)O)C1C=C(C)CCC1C(C)(C)O2` (centres unmarked) [drawing 32/drawing 33 1:2, Choline Salt with Tetrahydrocannabinolic Acid (2:1)], the Solubility worked out at 20000 µg/mL.

The values above are taken from patent publication US12129233B2, “Water-soluble salts of cannabinoids, preparation and uses thereof” (priority 2021, dated 2024).
